From PMC5651866, “Halogenated Chrysins Inhibit Dengue and Zika Virus Infectivity” (Scientific Reports, 2017) come the findings set out here.

A short description of series [1]: Cytotoxicity study (CellTiter 96 AQueous One) in LLC/MK2 cells. It counts as cell-based. The settings on record: rhesus monkey, LLC/MK2 cells. As to the method: (§1) The cytotoxicity of active compounds was tested on LLC-MK2, Vero, THP-1, HEK-293, HepG2 and C6/36 cell lines. Each cell line was seeded at 1 × 10^4 cells per well in 96-well plates and incubated overnight. The compounds were added at the indicated concentrations and the cells were incubated for 48 h, unless indicated otherwise. Cell viability was analyzed using CellTiter 96® AQueous One Solution Cell Proliferation Assay kit (Promega, Wisconsin-Madison, USA) according to manufacturer’s protocol. The plate was read at the A 450 in a VICTORTM × 3 microplate reader (PerkinElmer, Massachusetts, USA). Percent cell viability in compound-treated wells was calculated using reference DMSO-treated cells as a 100% cell viability control. The CC50 values of LLC/MK2 cells were calculated using nonlinear regression analysis. Results were reported as means and standard error of the means (SEM) of CC50 values of three independent experiments in which each drug concentration was tested in triplicate.

Series [2] deals with LLC/MK2 cells. The description is as above. It counts as cell-based. The settings on record: LLC/MK2 cell viability at 120 h versus 48 h; in words. As for the experimental part: as §1
Series [3] is described as follows: Cytotoxicity study (CellTiter 96 AQueous One) in Vero cells. Conditions: African green monkey, Vero cells, 48 h, read-out: Cells viability (%, means ± SEM) Vero. Type of series: cell-based. As for the experimental part:
as §1

Series [4] concerns Vero cells. Described as above. Type of series: cell-based. Conditions: 10 and 25 µM; in words. As for the experimental part: as §1
Series [5] in a line: Cytotoxicity study (CellTiter 96 AQueous One) in HEK-293 cells. Type of series: cell-based. Conditions: human, HEK-293 cells, read-out: Cells viability (%, means ± SEM) HEK-293. As to the method:
as §1

Series [6] deals with DENV2 (NGC). Description: Antiviral efficacy (EC50) in virus infected LLC/MK2 cells, plaque assay. Type of series: cell-based, Dengue virus.
Description: Compound at various concentrations were added to virus infected LLC/MK2 cells and viral titers were accessed by plaque titration of supernatants as previously described.
LLC/MK2 cells were seeded at 5 × 10^4 cells into each well of 24-well plate and incubated overnight at 37 °C under 5% CO2. Cells were infected with DENV2 at the multiplicity of infection (M.O.I.) of 0.1, unless indicated otherwise, for 1 h with gentle rocking every 15 min. Cells were washed with phosphate buffer saline (PBS) and incubated with 1 ml of MEM medium supplemented with 1% FBS as previously described. The compounds were prepared in dimethylsulfoxide (DMSO) at the indicated concentrations before addition to viral infected cells. Supernatants were collected after 5 day incubation and analyzed by plaque titration[9].
Compounds were prepared in DMSO at 8–12 different concentrations and added to virus infected cells as previously described. Supernatants were collected and the EC50 values were calculated from nonlinear regression analysis.
Series [7] relates to DENV2. The experiment in a line: Attachment inhibition study, DENV2 with LLC/MK2 cells. Conditions: 10 µM. It counts as cell-based, Dengue virus. As to the method: We further explored whether the compound would block the viral infectivity by neutralization. We set up the attachment inhibition assay by incubating DENV2 with LLC/MK2 cells at 4 °C for 1 h and FV13 was added before adsorption (pre-attachment), simultaneous with adsorption (co-attachment), and after adsorption (post-attachment) (Fig. 5A). DMSO was used as a mock treatment and added in parallel to FV13 to the experiment. Cells were incubated until cytopathic effects appeared under microscope (Fig. 5B). Supernatants and cells were then analyzed by plaque titration (Fig. 5C) and RT-qPCR (Fig. 5D), respectively. […] Therefore, the major targets of FV13 inhibition appear to function after attachment, possibly at the fusion or translation steps. […] (Supplementary 1). Therefore, fusion was unlikely the major target of FV13. We concluded that one of the major targets of FV13 functions early after infection and attachment and fusion are not critically affected. Flavivirus translation initiates within 1 to 5 hpi[26].
After supernatant collection, the remaining cells in experimental plates were extracted for viral RNAs using TRIzol reagent (Invitrogen, California, USA) according to the manufacturer’s protocol. The samples were loaded into the Direct-zol™ RNA MiniPrep (Zymo research, California, USA) and quantified by Nanodrop spectrophotometry (Eppendorf, New York, USA). The RT-qPCR was performed with a Step-OnePlus Real-Time PCR System (Applied Biosystems, California, USA.) with 1 × Power SYBRGreen PCR Master Mix, 400 nM each of capsid primers[40] or 250 nM of NS1 primers[41] and 0.1 µg of total RNA. The reactions were then cycled at 48 °C 30 min and 95 °C 10 min, followed by 45 cycles of 95 °C for 20 s (denaturation), 55 °C for 30 s (annealing), 72 °C for 30 s (extension). Each sample was analyzed in triplicated and results were confirmed by two independent experiments.
The attachment assay was adapted from Lani et al., 2016 and Jin et al., 2015 [42],[43]. Briefly, LLC/MK2 cells were seeded in 24-well plates and incubated as previously described. […]

In series [8] the target is T1, DENV2 NS2B/3 protease (Dengue virus type 2, UniProt P14340).
T1 construct: DENV2 NS2BH-(QR)-NS3pro enzyme3
T1 sequence (P14340 1398-1437): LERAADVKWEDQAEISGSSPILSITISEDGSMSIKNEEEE
T1 sequence (P14340 1476-1653): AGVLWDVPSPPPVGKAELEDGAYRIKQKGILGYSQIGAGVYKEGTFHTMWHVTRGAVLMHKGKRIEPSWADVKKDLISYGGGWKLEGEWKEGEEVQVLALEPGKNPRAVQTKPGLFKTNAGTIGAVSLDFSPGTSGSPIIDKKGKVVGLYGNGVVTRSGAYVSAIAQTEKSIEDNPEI
Description: In vitro protease assay. It counts as biochemical. The settings on record: in words.
Description: Assays were performed in triplicate in a 96-well half area black plate
(Greiner Bio-One, Monroe, NC, USA). The reaction mixture (100 μl) contained
200 mM Tris-HCl, pH 9.5, 30% glycerol, 0.1% CHAPS, 1% DMSO, 50 nM
DENV2 NS2BH-(QR)-NS3pro enzyme3, 10 µM fluorogenic tetrapeptide
substrate, Bz-Nle-Lys-Arg-Arg-AMC, and designated concentrations of
compounds in DMSO (concentration of 1%). The compound-enzyme mixture
was pre-incubated for 15 min at room temperature before addition of the
substrate. The reaction was continued at 37 οC for 30 min. The release of AMC
from the substrate was recorded every 1.5 min at 380 nm excitation and 460 nm
emission in a SpectraMax Gemini EM spectrofluorometer (Molecular Devices,
Sunnyvale, CA). DMSO alone (concentration of 1%) was used as the no-inhibitor
control (100% protease activity) and the bovine pancreatic trypsin inhibitor
protease, was used at 5 µM in DMSO concentration of 1% as a positive control
(0% protease activity). Data were plotted and reported as percent inhibition of
each compound to protease activity.
The in vitro enzymatic protease assay. Compounds were prepared three
concentrations and mixed with protein, added substrate (Bz)-Nle-Arg-arg-AMC
and measured at 460 nm with an excitation at 380 nm.

On to `O=c1cc(-c2ccccc2)oc2c(Br)c(O)c(Br)c(O)c12` [FV13, 6,8-dibromo-5,7-dihydroxyflavone], for which the viability at 48 h, 10 µM in series [1] (10 μM, 48 h, read-out: Cells viability (%, means ± SEM) LLC/MK2) was 81 ± 2.69%; in series [3] (10 μM), 53.1 ± 4.9%; in series [5] (10 μM) it was 98.1 ± 0.72%. Besides, the viability at 48 h, 25 µM was 59.4 ± 2.42% in series [1] (25 μM, 48 h, read-out: Cells viability (%, means ± SEM) LLC/MK2); 42.6 ± 0.65% in series [3] (25 μM); 89.4 ± 5.6% in series [5] (25 μM). The CC50 at 48 h in series [1] (48 h incubation, read-out: CC50 (cytotoxic concentration)) was 44.3 ± 2.9 µM. The “effect of long term incubation on cytotoxicity” value in series [2] is “similarly non-toxic at both 48 and 120 h”. Besides, the “sensitivity of Vero cells to the compound” value in series [4] is recorded as “very sensitive”. In series [6] (DENV2 (NGC), CC50 in LLC/MK2), the “S.I. Selectivity index (CC50/EC50)” value was 30.43. The compound further showed an EC50 in series [6] (Dengue virus, DENV2, LLC-MK2) of 1.47 ± 0.86 µM. Also, the “viral RNA reduction” value in series [7] (post-attachment, intracellular RNA, RT-qPCR) is on record as 64.07 ± 3.37%. This compound also returned a plaque titer reduction in series [7] (post-attachment, supernatants, 2 days) of 40.59 ± 2.83%. Further, in series [7] (pre-attachment and co-attachment, in words), the “interference with pre- or co-attachment steps” value was “did not interfere with either pre- or co-attachment steps”. Further, in series [8], the “targeting of DENV2 protease in the in vitro protease assay” value was “did not target DENV2 protease”.
